The source of these data is patent publication US20230138851A1, “NOVEL ALKYNE DERIVATIVES” (CARNA BIOSCIENCES, INC., priority 2020, published 2023).

What is called IC50 is the concentration needed to halve the response being measured.

Common to all, as to assay type: biochemical
In experiment [1] the target is T1, DYRK1A (Homo sapiens, UniProt Q13627).
T1 construct: purchased Carna Biosciences, Inc. 04-130
In words: Inhibition test on activity of DYRK family, mobility shift assay (MSA), DYRK1A. The conditions noted are these: ATP 100 μM, FITC-labeled DYRKtide peptide substrate, room temperature 1 hour; for IC50: read-out: Inhibitory Activity 1a (IC50 against DYRK1A). On the procedure: (§1) [Inhibition Test on Activity of DYRK Family (DYRK1A, DYRK1B, DYRK2, and […])]
(§2) (Method for Measuring Kinase Activity)
(§3) The kinase activity was measured by mobility shift assay (MSA) method using QuickScout Screening Assist™ MSA (commercially available kit manufactured by Carna Biosciences, Inc.). The substrate of the kinase reaction used was an FITC-labeled DYRKtide peptide included in the kit. An assay buffer [20 mM HEPES, 0.01% Triton X-100™, 2 mM dithiothreitol, pH 7.5] was used to create a substrate mixture solution with a substrate (4 μM), MgCl2 (20 mM), and ATP (DYRK1A: 100 μM; DYRK1B: 200 μM; DYRK2: 40 μM; and DYRK3: 20 μM). In addition, kinases (DYRK1A: manufactured by Carna Biosciences, Inc., Cat. No. 04-130; DYRK1B: manufactured by Carna Biosciences, Inc., Cat. No. 04-131; DYRK2; manufactured by Carna Biosciences, Inc., Cat. No. 04-132; and DYRK3; manufactured by Carna Biosciences, Inc., Cat. No. 04-133) were diluted with the assay buffer to prepare enzyme solutions (DYRK1A: 0.2 ng/μL; DYRK1B: 0.08 ng/μL; DYRK2: 0.04 ng/μL; and DYRK3: 0.25 ng/μL). The 10 mM solution of the test compound in DMSO was further diluted with DMSO to 10 levels of the concentration (0.00003 mM, 0.0001 mM, 0.0003 mM, 0.001 mM, 0.003 mM, 0.01 mM, 0.03 mM, 0.1 mM, 0.3 mM, and 1 mM), each of which was subjected to 25-fold dilution with the assay buffer to obtain a drug solution (4% DMSO solution). 5 μL of the drug solution or a control solution (4% DMSO-assay buffer), 5 μL of the substrate mixture solution, and 10 μL of the enzyme solution were mixed in the wells of a polypropylene 384-well plate and allowed to react at room temperature for 1 hour, and then the reaction was quenched by adding 60 μL of the termination buffer included in the kit. Subsequently, the quantities of the substrates (S) and the phosphorylated substrate (P) in the reaction solution were measured using LabChip EZ Reader II system (manufactured by Caliper Life Sciences) according to the protocol of the assay kit.
(§4) (Method for Evaluating Inhibitory Activity)
(§5) The heights of the peaks of the “substrate” and the “phosphorylated substrate” were expressed as S and P, respectively, and a blank containing the assay buffer instead of the enzyme solution was also measured.
(§6) The inhibition rate (%) of the test compound was calculated according to the following equation:
(§7) Inhibition rate (%)=(1−(C−A)/(B−A))×100
(§8) wherein, A, B, and C represent P/(P+S) of the blank well, P/(P+S) of the control solution well, and P/(P+S) of the compound-containing well, respectively.
(§9) The IC50 value was calculated via a regression analysis of the inhibition rate and the test compound concentration (logarithmic value).
(§10) The inhibiting activities of representative compounds of the present invention are shown against DYRK1A, DYRK1B, DYRK2, and DYRK3 in Tables 7 and 8. The kinase activity inhibitory effect was indicated with the mark *** at an IC50 value of less than 0.01 μM; the mark ** at 0.01 μM or more and less than 0.1 μM; the mark * at 0.1 μM or more and less than 1 μM; and the mark — at 1 μM or more (N.D. indicates not measured).

The target in experiment [2] is T2, DYRK2 (Homo sapiens, UniProt Q92630).
T2 construct: purchased Carna Biosciences, Inc. 04-132
T2 sequence (Q92630 1-601): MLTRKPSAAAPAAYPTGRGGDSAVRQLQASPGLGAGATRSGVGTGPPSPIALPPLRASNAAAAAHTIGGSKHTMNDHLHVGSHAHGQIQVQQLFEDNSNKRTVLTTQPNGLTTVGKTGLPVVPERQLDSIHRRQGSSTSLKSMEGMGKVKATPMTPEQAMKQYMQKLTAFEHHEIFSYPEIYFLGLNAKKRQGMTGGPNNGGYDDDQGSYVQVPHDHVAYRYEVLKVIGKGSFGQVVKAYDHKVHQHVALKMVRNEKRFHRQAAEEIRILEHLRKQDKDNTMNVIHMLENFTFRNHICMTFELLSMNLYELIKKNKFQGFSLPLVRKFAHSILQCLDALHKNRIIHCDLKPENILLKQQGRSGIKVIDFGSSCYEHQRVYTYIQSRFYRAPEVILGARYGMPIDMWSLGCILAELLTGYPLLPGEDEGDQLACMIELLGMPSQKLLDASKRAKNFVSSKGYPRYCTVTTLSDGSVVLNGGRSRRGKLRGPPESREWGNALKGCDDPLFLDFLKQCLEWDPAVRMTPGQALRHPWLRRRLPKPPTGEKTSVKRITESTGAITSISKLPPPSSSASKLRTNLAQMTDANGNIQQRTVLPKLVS
In words: Inhibition test on activity of DYRK family, mobility shift assay (MSA), DYRK2. The conditions noted are these: ATP 40 μM, FITC-labeled DYRKtide peptide substrate, room temperature 1 hour; for IC50: read-out: Inhibitory Activity 2 (IC50 against DYRK2). On the procedure:
as §1, §2, §3, §4, §5, §6, §7, §8, §9, §10

The target of experiment [3] is T3, DYRK3 (Homo sapiens, UniProt O43781).
T3 construct: purchased Carna Biosciences, Inc. 04-133
T3 sequence (O43781 1-588): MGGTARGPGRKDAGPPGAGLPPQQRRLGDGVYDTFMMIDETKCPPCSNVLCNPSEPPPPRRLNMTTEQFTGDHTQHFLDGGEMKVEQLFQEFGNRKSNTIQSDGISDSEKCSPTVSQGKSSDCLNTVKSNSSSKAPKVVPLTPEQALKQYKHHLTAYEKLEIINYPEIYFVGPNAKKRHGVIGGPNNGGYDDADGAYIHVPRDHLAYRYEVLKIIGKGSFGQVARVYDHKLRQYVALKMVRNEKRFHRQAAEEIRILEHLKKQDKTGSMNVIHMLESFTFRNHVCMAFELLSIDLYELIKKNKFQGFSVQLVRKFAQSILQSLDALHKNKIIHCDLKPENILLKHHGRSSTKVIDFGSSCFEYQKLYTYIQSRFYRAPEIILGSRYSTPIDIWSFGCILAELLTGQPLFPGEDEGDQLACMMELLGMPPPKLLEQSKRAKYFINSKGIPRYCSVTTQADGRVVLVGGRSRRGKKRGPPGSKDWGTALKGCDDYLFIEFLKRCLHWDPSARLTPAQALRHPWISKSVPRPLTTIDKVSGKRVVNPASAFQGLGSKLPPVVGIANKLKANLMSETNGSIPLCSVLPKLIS
The experiment can be described thus: Inhibition test on activity of DYRK family, mobility shift assay (MSA), DYRK3. The conditions noted are these: ATP 20 μM, FITC-labeled DYRKtide peptide substrate, room temperature 1 hour; for IC50: read-out: Inhibitory Activity 3 (IC50 against DYRK3). How it is done:
as §1, §2, §3, §4, §5, §6, §7, §8, §9, §10

Consider `C[Si](C)(C)C#CC1CNC(=O)N1c1nc2c3c(ccc2s1)OCC3` (racemic) [Example 11, (RS)-1-(7,8-dihydrobenzofuro[4,5-d]thiazol-2-yl)-5-[(trimethylsilyl)ethynyl]imidazolidin-2-one], for which the “Inhibitory Activity 1a (IC50 against DYRK1A)” value (shortened to “Inhibitory Activity 1a”) in experiment [1] is given as “* *”. The IC50 in experiment [2] and in experiment [3] was 0.1 to 1 µM each time.
Regarding `CC#C[C@@H]1[C@H]([C@H](C)O)NC(=O)N1c1nc2c3c(ccc2s1)OCC3` [Example 84, (4R,5R)-1-(7,8-dihydrobenzofuro[4,5-d]thiazol-2-yl)-4-((S)-1-hydroxyethyl)-5-(prop-1-yn-1-yl)imidazolidin-2-one], the “Inhibitory Activity 1a” value in experiment [1] is reported as “* * *”. Also, the IC50 in experiment [2] and in experiment [3] was 0.1 to 1 µM throughout.
On to `CC#CC1CNC(=O)N1c1nc2c3c(ccc2s1)OCC(C)N3C` (single isomer, unassigned) [Example 48, 1-(-8,9-dimethyl-8,9-dihydro-7H-thiazolo[4′,5′:3,4]benz[1,2-b][1,4]oxazin-2-yl)-5-(prop-1-yn-1-yl)imidazolidin-2-one], for which the 50% inhibitory concentration (IC50) in experiment [1] is 0.1 to 1 µM; in experiment [2], at least 1 µM; in experiment [3], at least 1 µM.
`CC#C[C@@H]1[C@H]([C@@H](C)O)NC(=O)N1c1nc2c3c(ccc2s1)OCC3` [Example 82, (4R,5R)-1-(7,8-dihydrobenzofuro[4,5-d]thiazol-2-yl)-4-((R)-1-hydroxyethyl)-5-(prop-1-yn-1-yl)imidazolidin-2-one]: the “Inhibitory Activity 1a” value in experiment [1] is recorded as “* * *”. Further, in experiment [2], the IC50 was in the range of 0.1 to 1 µM. Besides, the “Inhibitory Activity 3 (IC50 against DYRK3)” value in experiment [3] is “* *”.
`CC#CC1CNC(=O)N1c1nc2c3c(ccc2s1)OCC3` (single isomer, unassigned) [Example 10, 1-(7,8-dihydrobenzofuro[4,5-d]thiazol-2-yl)-5-(prop-1-yn-1-yl)imidazolidin-2-one]: the IC50 in experiment [1] was 0.1 to 1 µM; in experiment [2], at least 1 µM; in experiment [3] it was at least 1 µM.
Turning to `CC#CC1CNC(=O)N1c1nc2c(ccc3nc[nH]c32)s1` (racemic) [Example 35, (RS)-1-(8H-imidazo[4′,5′:5,6]benz[1,2-d]thiazol-2-yl)-5-(prop-1-yn-1-yl)imidazolidin-2-one], the “Inhibitory Activity 1a” value in experiment [1] is “** *”. In addition, the IC50 in experiment [2] and in experiment [3] was 0.1 to 1 µM each time.
Regarding `CC#C[C@H]1[C@@H](C)NC(=O)N1c1nc2c3c(ccc2s1)OCC3` [Example 17, (4R,5S)-1-(7,8-dihydrobenzofuro[4,5-d]thiazol-2-yl)-4-methyl-5-(prop-1-yn-1-yl)imidazolidin-2-one], the IC50 in experiment [1] was 0.1 to 1 µM; in experiment [2] it was at least 1 µM; in experiment [3], at least 1 µM.
For `C#CC1CNC(=O)N1c1nc2c3c(ccc2s1)OCC3` (single isomer, unassigned) [Example 14, 1-(7,8-dihydrobenzofuro[4,5-d]thiazol-2-yl)-5-ethynylimidazolidin-2-one], in experiment [1], the “Inhibitory Activity 1a” value was “* *”. Moreover, the IC50 in experiment [2] and in experiment [3] was 0.1 to 1 µM in each case.
Consider `O=C1NCC(C#Cc2ccccc2)N1c1nc2c3c(ccc2s1)OCC3` (racemic) [Example 15, (RS)-1-(7,8-dihydrobenzofuro[4,5-d]thiazol-2-yl)-5-(phenylethynyl)imidazolidin-2-one], for which the IC50 in experiment [1] was 0.1 to 1 µM; in experiment [2], at least 1 µM; in experiment [3] it was at least 1 µM.
For the compound `C#CC1CNC(=O)N1c1nc2c3c(ccc2s1)OCC3` (single isomer, unassigned) [Example 13, 1-(7,8-dihydrobenzofuro[4,5-d]thiazol-2-yl)-5-ethynylimidazolidin-2-one], the “Inhibitory Activity 1a” value in experiment [1] is “* * *”. Besides, the “Inhibitory Activity 2 (IC50 against DYRK2)” value in experiment [2] was “* *”. Also, in experiment [3], the “Inhibitory Activity 3 (IC50 against DYRK3)” value is listed as “* *”.
